The test system of data set [1] is RPMI-8226. Put plainly: Upregulation of Ac-H3 expression in human RPMI-8226 cells at 0.1 to 0.5 uM incubated for 24 hrs by Western blot analysis. Type of data set: functional, cell-based. The following applies: dose 0.1-0.5 µM. For orientation: Immunoblotting shows a protein as a band on a membrane.
A short description of data set [2]: Cmax in mouse at 10 mg/kg, po. Format: ADME, organism-based. The following applies: in vivo.
Data set [3] is described as follows: Oral bioavailability in mouse at 10 mg/kg. The note with it: in vivo. Type of data set: ADME, organism-based.
Data set [4] has as its system RPMI-8226. Put plainly: Induction of apoptosis in human RPMI-8226 cells assessed as increase in p53 expression at 0.1 to 2.5 uM incubated for 24 hrs by Western blot analysis. Type of data set: functional, cell-based. The note with it: dose 0.1-2.5 µM.
The target in data set [5] is Histone deacetylase 9 (Homo sapiens, UniProt Q9UKV0). The experiment in a line: Inhibition of HDAC9 (unknown origin) preincubated for 10 mins followed by substrate addition by fluorescence based assay.
Sequence of Histone deacetylase 9 (Q9UKV0 whole entry): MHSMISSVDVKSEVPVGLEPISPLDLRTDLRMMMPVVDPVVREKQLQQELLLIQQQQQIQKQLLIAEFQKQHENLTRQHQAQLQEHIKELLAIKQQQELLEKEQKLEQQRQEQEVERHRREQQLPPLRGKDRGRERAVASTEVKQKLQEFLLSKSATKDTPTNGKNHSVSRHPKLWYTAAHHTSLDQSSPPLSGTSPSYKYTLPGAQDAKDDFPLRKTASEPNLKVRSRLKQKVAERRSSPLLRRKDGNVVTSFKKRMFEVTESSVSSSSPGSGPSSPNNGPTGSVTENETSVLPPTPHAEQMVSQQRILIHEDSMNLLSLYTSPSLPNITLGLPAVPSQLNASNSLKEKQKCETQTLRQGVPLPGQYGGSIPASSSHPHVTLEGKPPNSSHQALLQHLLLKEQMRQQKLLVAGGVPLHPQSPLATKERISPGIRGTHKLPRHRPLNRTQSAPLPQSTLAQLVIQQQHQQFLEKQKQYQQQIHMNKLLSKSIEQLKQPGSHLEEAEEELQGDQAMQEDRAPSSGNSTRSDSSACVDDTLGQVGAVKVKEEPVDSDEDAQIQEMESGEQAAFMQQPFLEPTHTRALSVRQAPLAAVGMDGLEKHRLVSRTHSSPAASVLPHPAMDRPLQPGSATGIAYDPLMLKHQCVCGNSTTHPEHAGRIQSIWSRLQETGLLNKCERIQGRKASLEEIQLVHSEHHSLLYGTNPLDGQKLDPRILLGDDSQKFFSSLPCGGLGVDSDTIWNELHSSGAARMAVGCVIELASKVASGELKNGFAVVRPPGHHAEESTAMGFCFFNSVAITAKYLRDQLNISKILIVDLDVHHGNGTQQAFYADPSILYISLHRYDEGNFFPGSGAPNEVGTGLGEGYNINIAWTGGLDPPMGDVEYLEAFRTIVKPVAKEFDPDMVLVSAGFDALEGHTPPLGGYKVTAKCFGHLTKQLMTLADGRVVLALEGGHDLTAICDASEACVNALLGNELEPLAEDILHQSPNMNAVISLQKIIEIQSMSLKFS
Data set [6] deals with RPMI-8226. The experiment in a line: Induction of cell cycle arrest at G1 phase in human RPMI-8226 cells at 2.5 uM incubated for 24 hrs by PI staining based flow cytometry (reference value: 19.2 %). Format: functional. A general note: In flow cytometry, cells or beads pass a laser one at a time.
Data set [7] deals with T1, Protein deacetylase HDAC6 (Homo sapiens, UniProt Q9UBN7).
T1 sequence (Q9UBN7 whole entry): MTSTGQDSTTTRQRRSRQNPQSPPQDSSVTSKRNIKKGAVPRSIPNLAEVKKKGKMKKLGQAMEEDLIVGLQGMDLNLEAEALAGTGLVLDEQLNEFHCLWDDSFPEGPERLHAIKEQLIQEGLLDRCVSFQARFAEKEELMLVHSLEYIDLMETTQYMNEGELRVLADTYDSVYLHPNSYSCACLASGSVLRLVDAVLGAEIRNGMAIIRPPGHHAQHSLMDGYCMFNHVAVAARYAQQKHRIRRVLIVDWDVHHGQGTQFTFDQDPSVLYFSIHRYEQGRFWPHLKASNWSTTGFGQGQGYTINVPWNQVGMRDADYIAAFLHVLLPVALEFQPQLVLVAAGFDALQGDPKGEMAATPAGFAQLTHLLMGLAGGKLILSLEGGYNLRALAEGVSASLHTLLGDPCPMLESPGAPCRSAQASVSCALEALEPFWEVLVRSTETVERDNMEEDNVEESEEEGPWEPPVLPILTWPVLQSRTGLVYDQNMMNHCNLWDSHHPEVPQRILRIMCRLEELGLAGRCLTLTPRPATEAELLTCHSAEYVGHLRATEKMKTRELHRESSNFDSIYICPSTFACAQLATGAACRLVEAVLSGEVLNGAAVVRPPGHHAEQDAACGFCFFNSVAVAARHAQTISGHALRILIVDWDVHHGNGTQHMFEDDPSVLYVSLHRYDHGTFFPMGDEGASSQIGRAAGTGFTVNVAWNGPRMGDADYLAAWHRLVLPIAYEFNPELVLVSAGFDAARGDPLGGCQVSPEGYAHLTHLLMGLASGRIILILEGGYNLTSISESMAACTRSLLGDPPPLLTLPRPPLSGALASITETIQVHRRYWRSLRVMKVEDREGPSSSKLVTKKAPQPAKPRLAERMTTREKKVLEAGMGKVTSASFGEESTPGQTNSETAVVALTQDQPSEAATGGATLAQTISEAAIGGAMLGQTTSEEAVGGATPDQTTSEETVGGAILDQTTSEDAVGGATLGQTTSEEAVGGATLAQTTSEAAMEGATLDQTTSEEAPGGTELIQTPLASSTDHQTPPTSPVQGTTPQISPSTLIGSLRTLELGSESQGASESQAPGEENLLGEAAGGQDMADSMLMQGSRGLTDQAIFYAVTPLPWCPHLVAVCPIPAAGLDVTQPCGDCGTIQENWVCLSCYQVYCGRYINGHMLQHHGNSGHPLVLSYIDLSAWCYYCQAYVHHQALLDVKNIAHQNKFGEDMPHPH
The experiment in a line: Inhibition of HDAC6 (unknown origin) preincubated for 10 mins followed by substrate addition measured for 1 hr by fluorescence based assay.

Data set [8] has as its system RPMI-8226. The experiment in a line: Induction of apoptosis in human RPMI-8226 cells assessed as late apoptotic cells at 0.1 uM incubated for 24 hrs by Annexin V-FITC/PI staining based flow cytometry (reference value: 2.78 %). Type of data set: functional.
Data set [9] relates to RPMI-8226. Put plainly: Antitumor activity against human RPMI-8226 cells xenografted in Balb/c nude mouse assessed as ratio of tumor to control at 40 mg/kg, po qd for 21 days administered consecutively relative to control. The following applies: time 21 day. Format: functional.
Data set [10] addresses T2, Histone deacetylase 8 (Homo sapiens, UniProt Q9BY41).
T2 sequence (Q9BY41 whole entry): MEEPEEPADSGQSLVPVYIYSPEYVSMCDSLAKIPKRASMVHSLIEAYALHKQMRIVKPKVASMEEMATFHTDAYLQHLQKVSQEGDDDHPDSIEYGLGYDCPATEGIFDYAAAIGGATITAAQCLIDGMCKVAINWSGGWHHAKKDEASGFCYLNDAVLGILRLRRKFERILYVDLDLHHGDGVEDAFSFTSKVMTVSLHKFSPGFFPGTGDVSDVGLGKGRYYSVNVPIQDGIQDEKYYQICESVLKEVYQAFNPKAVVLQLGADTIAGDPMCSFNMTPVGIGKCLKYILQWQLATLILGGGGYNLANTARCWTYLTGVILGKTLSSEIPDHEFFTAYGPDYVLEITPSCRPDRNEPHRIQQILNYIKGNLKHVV
Put plainly: Inhibition of HDAC8 (unknown origin) preincubated for 10 mins followed by substrate addition by fluorescence based assay.

In data set [11] the test system is RPMI-8226. Put plainly: Induction of cell cycle arrest at S phase in human RPMI-8226 cells at 2.5 uM incubated for 24 hrs by PI staining based flow cytometry (reference value: 58.5 %). Format: functional.
Data set [12] concerns RPMI-8226. Put plainly: Induction of apoptosis in human RPMI-8226 cells assessed as increase in Bax expression at 0.1 to 2.5 uM incubated for 24 hrs by Western blot analysis. Type of data set: functional, cell-based. The note with it: dose 0.1-2.5 µM.
The target in data set [13] is Histone deacetylase 3 (Homo sapiens, UniProt O15379). Put plainly: Inhibition of HDAC3 (unknown origin) preincubated for 10 mins followed by substrate addition by fluorescence based assay.
Sequence of Histone deacetylase 3 (O15379 whole entry): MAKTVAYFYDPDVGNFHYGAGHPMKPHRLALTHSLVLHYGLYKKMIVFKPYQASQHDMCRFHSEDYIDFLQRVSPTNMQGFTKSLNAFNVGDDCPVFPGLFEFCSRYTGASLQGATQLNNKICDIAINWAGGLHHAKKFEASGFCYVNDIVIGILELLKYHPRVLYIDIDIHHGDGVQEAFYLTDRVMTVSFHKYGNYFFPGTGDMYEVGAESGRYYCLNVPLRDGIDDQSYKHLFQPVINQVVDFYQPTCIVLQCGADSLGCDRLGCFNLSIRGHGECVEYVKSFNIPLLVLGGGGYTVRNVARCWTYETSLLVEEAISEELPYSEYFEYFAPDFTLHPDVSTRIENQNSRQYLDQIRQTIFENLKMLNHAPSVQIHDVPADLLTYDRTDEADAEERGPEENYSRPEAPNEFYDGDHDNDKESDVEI
In data set [14] the test system is RPMI-8226. The experiment in a line: Induction of cell cycle arrest at G2 phase in human RPMI-8226 cells at 0.1 uM incubated for 24 hrs by PI staining based flow cytometry (reference value: 18.3 %). Type of data set: functional.
A short description of data set [15]: Toxicity in Balb/c nude mouse xenografted with human RPMI-8226 cells assessed as adverse effect on spleen at 10 to 40 mg/kg, po qd for 21 days administered consecutively by H and E staining based analysis. Type of data set: organism-based. The note with it: in vivo, 504 h, dose 10-40 mg/kg, time 21 day. Background: A xenograft is tissue or cells of one species grown in another, often human tumour cells in immunodeficient mice.

For data set [16], the system named is RPMI-8226. Put plainly: Induction of apoptosis in human RPMI-8226 cells assessed as viable cells at 0.5 uM incubated for 24 hrs by Annexin V-FITC/PI staining based flow cytometry (reference value: 90.98 %). The following applies: read-out: Activity. Type of data set: functional.
Data set [17] is described as follows: Toxicity in Balb/c nude mouse xenografted with human RPMI-8226 cells assessed as adverse effect on heart at 10 to 40 mg/kg, po qd for 21 days administered consecutively by H and E staining based analysis. Format: organism-based. The following applies: in vivo, 504 h, dose 10-40 mg/kg, time 21 day.
For data set [18], the system named is RPMI-8226. The experiment in a line: Induction of apoptosis in human RPMI-8226 cells assessed as early apoptotic cells at 2.5 uM incubated for 24 hrs by Annexin V-FITC/PI staining based flow cytometry (reference value: 5.34 %). Type of data set: functional.
Data set [19] is described as follows: Tmax in mouse at 10 mg/kg, po. Format: ADME, organism-based. The note with it: in vivo.

Activity calls are given as the source filed them. No cut-off for these calls is given here.

A word on the Cmax: it is the maximum level reached in the sampled fluid or tissue. As usually defined, the bioavailability is the share of a dose that reaches the circulation, judged against a reference dose that is usually intravenous. Broadly, the IC50 is the midpoint of a concentration-inhibition curve. A higher IC50 goes with lower potency. The T/C is the result in the treated group divided by that in the control group, in per cent. One may read the Tmax as the time from dosing to the highest level. `Cn1c([C@@H](Cc2ccccc2)NCc2ccccc2)nc2cc(C(=O)NO)ccc21`: the result in data set [1] was inactive. The Cmax in data set [2] was 177 ng/mL. The compound further had a bioavailability in [3] of 4.6%. Further, the outcome in data set [4] and in [12] was Active. In addition, the IC50 came out at 1880 nM in [5], 4.63 nM in [7], 867 nM in [10] and 1840 nM in data set [13]. Further, the Activity is 26.8% in [6]; 4.28% in data set [8]; 39.8% in data set [11]; 21.1% in data set [14]; “Non-Toxic” in data set [15]; “Non-Toxic” in [17]. In addition, in data set [18], the Activity turned out to be 18.97%. Moreover, in [9], the T/C came out at 34.8%. Further, the viability at 0.5 µM in data set [16] amounted to 81.2%. Besides, the Tmax in data set [19] stood at 20 min.

The values are drawn from ChEMBL document CHEMBL5634123, “Design and synthesis of 1H-benzo[d]imidazole selective HDAC6 inhibitors with potential therapy for multiple myeloma” (Eur J Med Chem, 2023).
